Biological target: T1, α-glucosidase (EC 3.2.1.20; rat intestinal acetone powder)
T1 construct: gene Si; crude supernatant of rat intestinal acetone powder (Sigma 1639) in normal saline; native, unpurified; maltase activity read as glucose release
Assay: glucose release from maltose, glucose kit, absorbance […] nm
Assay type: biochemical
Conditions: 10 mM maltose, 0.1 M buffer pH 6.9, 10 min, crude rat intestinal supernatant

For COC(=O)C1=CO[C@@H](O[C@@H]2O[C@H](CO)[C@@H](O)[C@H](O)[C@H]2O)[C@H]2[C@]1(O)[C@H](O)C[C@]2(C)O [compound 1, 6β-hydroxyipolamiide], the “α-Glucosidase inhibition / IC50” value was 537.79 ± 45.04 µg/mL.

Reference: article PMC10616201, “Antioxidant and α-glucosidase inhibitory activities of compound isolated from Stachytarpheta jamaicensis (L) Vahl. leaves” (Scientific Reports, 2023)
